Columns and labels:
Phakopsora pachyrhizi = Phakopsora pachyrhizi / soybean / leaf disc preventative (Asian soybean rust); type: in vivo; conditions: foliar, 200 ppm in the applied formulation, soybean leaf disks, compared to untreated, read-out: disease control
Procedure: Leaf disks or leaf segments of various plant species are cut from plants grown in a greenhouse. The cut leaf disks or segments are placed in multiwell plates (24-well format) onto water agar. The leaf disks are sprayed with a test solution before (preventative) or after (curative) inoculation. Compounds to be tested are prepared as DMSO solutions (max. 10 mg/ml) which are diluted to the appropriate concentration with 0.025% Tween20 just before spraying. The inoculated leaf disks or segments are incubated under defined conditions (temperature, relative humidity, light, etc.) according to the respective test system. A single evaluation of disease level is carried out 3 to 14 days after inoculation, depending on the pathosystem. Percent disease control relative to the untreated check leaf disks or segments is then calculated.
Soybean leaf disks are placed on water agar in multiwell plates (24-well format) and sprayed with the formulated test compound diluted in water. One day after application leaf discs are inoculated by spraying a spore suspension on the lower leaf surface. After an incubation period in a climate cabinet of 24-36 hours in darkness at 20° C. and 75% rh leaf disc are kept at 20° C. with 12 h light/day and 75% rh. The activity of a compound is assessed as percent disease control compared to untreated when an appropriate level of disease damage appears in untreated check leaf disks (12 to 14 days after application).
The following compounds at 200 ppm in the applied formulation give at least 80% disease control in this test when compared to untreated control leaf disks under the same conditions, which show extensive disease development.

[1] = tested on: Glomerella lacenarium (Colletotrichum lagenarium); test: Glomerella lagenarium liquid culture / cucumber / preventative (anthracnose); type: cell-based; conditions: Colletotrichum orbiculare; 20 ppm in the applied formulation; liquid culture (PDB), growth inhibition measured photometrically 3 to 4 days after application; compared to untreated; read-out: disease control
Procedure, shortened: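 Conidia from cryogenic storage were mixed into potato dextrose broth. This was added to compound diluted from DMSO into 0.025% Tween20, tested at 20 ppm. Plates were incubated in the dark at 24 °C and 96% relative humidity, and growth was read photometrically after 2–7 days as % activity versus untreated check.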

[2] = tested on: Puccinia recondita f. Sp. Tritici; test: Puccinia recondita f. sp. tritici / wheat / leaf disc curative (brown rust); type: in vivo; conditions: foliar, 24 h, 200 ppm in the applied formulation, wheat leaf segments cv. Kanzler, curative (applied 1 day after inoculation), compared to untreated, read-out: disease control
Procedure, shortened: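 Wheat cv. Kanzler leaf segments on agar were inoculated with fungal spore suspension, held dark at 19° C and 75% RH, then sprayed 1 day later with formulated compound diluted in water. Incubation continued at 19° C, 75% RH, 12 h light/12 h dark; percent disease control versus untreated was scored 6 to 8 days after application.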

[3] = tested on: Puccinia recondita f. Sp. Tritici; test: Puccinia recondita f. sp. tritici / wheat / leaf disc preventative (brown rust); type: in vivo; conditions: foliar, 200 ppm in the applied formulation, wheat leaf segments cv. Kanzler, preventative (inoculated 1 day after application), compared to untreated, read-out: disease control
Procedure, shortened: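 Preventative leaf-segment test: compound at 200 ppm applied by spray to Kanzler wheat, with spore inoculation following after one day. Disease control relative to untreated check read 7 to 9 days post-application, incubation at 19° C., 75% relative humidity, 12 h light/12 h dark.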

CCCC(C)(C)C(=O)NCc1ccc(-c2noc(C(F)(F)F)n2)cc1 [Compound 1.4, 2,2-dimethyl-N-[[4-[5-(trifluoromethyl)-1,2,4-oxadiazol-3-yl]phenyl]methyl]pentanamide]
≥ 80%: pest or weed control at 200 ppm (Phakopsora pachyrhizi) | inhibition of growth at 20 ppm [1] | pest or weed control at 200 ppm [2] | pest or weed control at 200 ppm [3]

CC(C)C(=O)NCc1ccc(-c2noc(C(F)(F)F)n2)cc1 [Compound 1.6, 2-methyl-N-[[4-[5-(trifluoromethyl)-1,2,4-oxadiazol-3-yl]phenyl]methyl]propanamide]
≥ 80%: pest or weed control at 200 ppm (Phakopsora pachyrhizi) | inhibition of growth at 20 ppm [1] | pest or weed control at 200 ppm [2] | pest or weed control at 200 ppm [3]

C=CCCC(=O)NCc1ccc(-c2noc(C(F)(F)F)n2)cc1 [Compound 1.7, N-[[4-[5-(trifluoromethyl)-1,2,4-oxadiazol-3-yl]phenyl]methyl]pent-4-enamide]
≥ 80%: pest or weed control at 200 ppm (Phakopsora pachyrhizi) | inhibition of growth at 20 ppm [1] | pest or weed control at 200 ppm [2] | pest or weed control at 200 ppm [3]

CCCCCC(=O)NCc1ccc(-c2noc(C(F)(F)F)n2)cc1 [Compound 1.8, N-[[4-[5-(trifluoromethyl)-1,2,4-oxadiazol-3-yl]phenyl]methyl]hexanamide]
≥ 80%: pest or weed control at 200 ppm (Phakopsora pachyrhizi) | inhibition of growth at 20 ppm [1] | pest or weed control at 200 ppm [2] | pest or weed control at 200 ppm [3]

CC(=O)CC(C)C(=O)NCc1ccc(-c2noc(C(F)(F)F)n2)cc1 (centres unmarked) [Compound 1.9, 2-methyl-4-oxo-N-[[4-[5-(trifluoromethyl)-1,2,4-oxadiazol-3-yl]phenyl]methyl]pentanamide]
≥ 80%: pest or weed control at 200 ppm (Phakopsora pachyrhizi) | inhibition of growth at 20 ppm [1] | pest or weed control at 200 ppm [2] | pest or weed control at 200 ppm [3]

CCCC(=O)NCc1ccc(-c2noc(C(F)(F)F)n2)cc1 [Compound 1.10, N-[[4-[5-(trifluoromethyl)-1,2,4-oxadiazol-3-yl]phenyl]methyl]butanamide]
≥ 80%: pest or weed control at 200 ppm (Phakopsora pachyrhizi) | inhibition of growth at 20 ppm [1] | pest or weed control at 200 ppm [2] | pest or weed control at 200 ppm [3]

CC(C)CC(=O)NCc1ccc(-c2noc(C(F)(F)F)n2)cc1 [Compound 1.12, 3-methyl-N-[[4-[5-(trifluoromethyl)-1,2,4-oxadiazol-3-yl]phenyl]methyl]butanamide]
≥ 80%: pest or weed control at 200 ppm (Phakopsora pachyrhizi) | inhibition of growth at 20 ppm [1] | pest or weed control at 200 ppm [2] | pest or weed control at 200 ppm [3]

CC=CCC(=O)NCc1ccc(-c2noc(C(F)(F)F)n2)cc1 [Compound 1.14, N-[[4-[5-(trifluoromethyl)-1,2,4-oxadiazol-3-yl]phenyl]methyl]pent-3-enamide]
≥ 80%: pest or weed control at 200 ppm (Phakopsora pachyrhizi) | inhibition of growth at 20 ppm [1] | pest or weed control at 200 ppm [2] | pest or weed control at 200 ppm [3]

CC(C)(C)CC(=O)NCc1ccc(-c2noc(C(F)(F)F)n2)cc1 [Compound 1.15, 3,3-dimethyl-N-[[4-[5-(trifluoromethyl)-1,2,4-oxadiazol-3-yl]phenyl]methyl]butanamide]
≥ 80%: pest or weed control at 200 ppm (Phakopsora pachyrhizi) | inhibition of growth at 20 ppm [1] | pest or weed control at 200 ppm [2] | pest or weed control at 200 ppm [3]

CCC(C)C(=O)NCc1ccc(-c2noc(C(F)(F)F)n2)cc1 (centres unmarked) [Compound 1.17, 2-methyl-N-[[4-[5-(trifluoromethyl)-1,2,4-oxadiazol-3-yl]phenyl]methyl]butanamide]
≥ 80%: pest or weed control at 200 ppm (Phakopsora pachyrhizi) | inhibition of growth at 20 ppm [1] | pest or weed control at 200 ppm [2] | pest or weed control at 200 ppm [3]

CCC(C)(CC)C(=O)NCc1ccc(-c2noc(C(F)(F)F)n2)cc1 [Compound 1.20, 2-ethyl-2-methyl-N-[[4-[5-(trifluoromethyl)-1,2,4-oxadiazol-3-yl]phenyl]methyl]butanamide]
≥ 80%: pest or weed control at 200 ppm (Phakopsora pachyrhizi) | inhibition of growth at 20 ppm [1] | pest or weed control at 200 ppm [2] | pest or weed control at 200 ppm [3]

COCCCC(=O)NCc1ccc(-c2noc(C(F)(F)F)n2)cc1 [Compound 1.21, 4-methoxy-N-[[4-[5-(trifluoromethyl)-1,2,4-oxadiazol-3-yl]phenyl]methyl]butanamide]
≥ 80%: pest or weed control at 200 ppm (Phakopsora pachyrhizi) | inhibition of growth at 20 ppm [1] | pest or weed control at 200 ppm [2] | pest or weed control at 200 ppm [3]

CC(C)C(=O)NCc1ccc(-c2noc(C(F)(F)F)n2)cc1F [Compound 1.35, N-[[2-fluoro-4-[5-(trifluoromethyl)-1,2,4-oxadiazol-3-yl]phenyl]methyl]-2-methyl-propanamide]
≥ 80%: pest or weed control at 200 ppm (Phakopsora pachyrhizi) | inhibition of growth at 20 ppm [1] | pest or weed control at 200 ppm [2] | pest or weed control at 200 ppm [3]

CCCC(=O)NCc1ccc(-c2noc(C(F)(F)F)n2)cc1F [Compound 1.36, N-[[2-fluoro-4-[5-(trifluoromethyl)-1,2,4-oxadiazol-3-yl]phenyl]methyl]butanamide]
≥ 80%: pest or weed control at 200 ppm (Phakopsora pachyrhizi) | inhibition of growth at 20 ppm [1] | pest or weed control at 200 ppm [2] | pest or weed control at 200 ppm [3]

COCC(=O)NCc1ccc(-c2noc(C(F)(F)F)n2)cc1F [Compound 1.38, N-[[2-fluoro-4-[5-(trifluoromethyl)-1,2,4-oxadiazol-3-yl]phenyl]methyl]-2-methoxy-acetamide]
≥ 80%: pest or weed control at 200 ppm (Phakopsora pachyrhizi) | inhibition of growth at 20 ppm [1] | pest or weed control at 200 ppm [2] | pest or weed control at 200 ppm [3]

CCC(C)C(=O)NCc1ccc(-c2noc(C(F)(F)F)n2)c(F)c1F (centres unmarked) [Compound 1.59, N-[[2,3-difluoro-4-[5-(trifluoromethyl)-1,2,4-oxadiazol-3-yl]phenyl]methyl]-2-methyl-butanamide]
≥ 80%: pest or weed control at 200 ppm (Phakopsora pachyrhizi) | inhibition of growth at 20 ppm [1] | pest or weed control at 200 ppm [3]

CC(=O)NCC(=O)NCCc1ccc(-c2noc(C(F)(F)F)n2)cc1 [Compound 1.82, 2-acetamido-N-[2-[4-[5-(trifluoromethyl)-1,2,4-oxadiazol-3-yl]phenyl]ethyl]acetamide]
≥ 80%: pest or weed control at 200 ppm (Phakopsora pachyrhizi)

CC(CO)(CCl)C(=O)NCCc1ccc(-c2noc(C(F)(F)F)n2)cc1 (centres unmarked) [Compound 1.88, 2-(chloromethyl)-3-hydroxy-2-methyl-N-[2-[4-[5-(trifluoromethyl)-1,2,4-oxadiazol-3-yl]phenyl]ethyl]propanamide]
≥ 80%: pest or weed control at 200 ppm (Phakopsora pachyrhizi) | inhibition of growth at 20 ppm [1]

O=C(CC(F)(F)F)NCCc1ccc(-c2noc(C(F)(F)F)n2)cc1 [Compound 1.91, 3,3,3-trifluoro-N-[2-[4-[5-(trifluoromethyl)-1,2,4-oxadiazol-3-yl]phenyl]ethyl]propanamide]
≥ 80%: pest or weed control at 200 ppm (Phakopsora pachyrhizi) | inhibition of growth at 20 ppm [1] | pest or weed control at 200 ppm [3]

CC#CCOC(=O)NCc1ccc(-c2noc(C(F)(F)F)n2)cc1 [Compound 2.7, but-2-ynyl N-[[4-[5-(trifluoromethyl)-1,2,4-oxadiazol-3-yl]phenyl]methyl]carbamate]
≥ 80%: pest or weed control at 200 ppm (Phakopsora pachyrhizi) | pest or weed control at 200 ppm [3]

CCC(C)NC(=O)NCc1ccc(-c2noc(C(F)(F)F)n2)cc1 (centres unmarked) [Compound 3.7, 1-sec-butyl-3-[[4-[5-(trifluoromethyl)-1,2,4-oxadiazol-3-yl]phenyl]methyl]urea]
≥ 80%: pest or weed control at 200 ppm (Phakopsora pachyrhizi) | inhibition of growth at 20 ppm [1] | pest or weed control at 200 ppm [3]

Source: patent US10501425B2, “Microbiocidal oxadiazole derivatives” (SYNGENTA PARTICIPATIONS AG, priority 2015, dated 2019)
